This is an account of results in patent US8343913B1, “Hsp90, buffering and drug resistance” (priority 2004, dated 2013).

“Also recorded” adds a separate entry of the source.

For assay [1], the system named is C. albicans. The experiment in a line: Serial cell dilution (spotting) assay, growth with RAD. In kind it is cell-based, Candida albicans. The note with it: 1 μM RAD; CAI4 and CaERG3/erg3; SD medium, 30° C., two days. How it is done: Serial dilutions of CAI4 and CaERG3/erg3 were spotted on SD medium (upper panel) and medium supplemented with 1 μM RAD (bottom panel). Plates were photographed after two days at 30° C. in the dark.
(§1) Strains were grown to saturation in SD medium and cell concentrations were standardized based on optical density. Five-fold dilutions, starting from ˜4×10^6 cells/ml, were spotted on media, as indicated in the figure legends, using a spotter (Frogger, V&P Scientific, Inc). The plates were photographed after 2-3 days in the dark at the indicated temperature. For all spotting assays in which Hsp90 or calcineurin inhibitors were employed, the corresponding plates without these inhibitors was supplemented with the maximum final concentration of DMSO used (0.14%), as a solvent control.

In assay [2] the test system is C. albicans. Nature of the assay: Selection of fluconazole-resistant mutants on plates. In kind it is cell-based, Candida albicans. The following applies: 128 μg/ml fluconazole and 1 μM RAD; CAI4 and CaERG3/erg3; 7 days, 30° C. As to the method: Strains of C. albicans were grown at 30° C. in SD prior to plating ˜10^4 cells on SD plates with 128 μg/ml FL or with both 128 μg/ml FL and 1 μM RAD. Plates were photographed after 7 days at 30° C. in the dark.

The test system of assay [3] is S. cerevisiae. Nature of the assay: Serial cell dilution (spotting) assay with or without fluconazole. In kind it is cell-based, Saccharomyces cerevisiae. The note with it: GdA 5 μM or RAD 1 μM; 64 μg/ml fluconazole; rich medium, 30° C.; concordant by MIC testing. How it is done:
FIG. 4. Hsp90 and calcineurin are required for FL resistance acquired through diverse mutations. […] Top two panels, deletion mutants. Bottom panel, control strains obtained by rapid (R1-3) and gradual (G1-3) selection. (A) Hsp90 was inhibited by GdA (5 μM) or RAD (1 μM), as indicated. (B) Calcineurin was inhibited by cyclosporin A (CsA, 20 μM).
as §1

Assay [4] concerns S. cerevisiae. The experiment in a line: Fluconazole MIC test (broth microdilution) with Hsp90 or calcineurin inhibitors. In kind it is cell-based, Saccharomyces cerevisiae. As to the method: (§2) Cell densities of overnight cultures were determined and dilutions were prepared such that ˜10^3 cells were inoculated into each well. Radicicol (RAD, A.G. Scientific, Inc.) and geldanamycin (GdA, Alexis Biochemicals) were employed to inhibit Hsp90 at the concentrations indicated in the figure legends (1-5 μM). Cyclosporin A (CsA, CalBiochem) was employed to inhibit calcineurin at a concentration of 20 μM. Dimethyl sulfoxide (DMSO, Sigma-Aldrich Co.) was the solvent for RAD, GdA, and CsA. Thus, the maximum final DMSO concentration (0.14%) was included in FL MIC tests performed in the absence of RAD, GdA, or CsA to control for any solvent effects.
After 48 hours, plates were sealed with a clear film (Axygen Scientific), re-suspended by agitation, and absorbance was determined at 595 nm with the Multiskan Ascent photometer (Thermo Labsystems, Thermo Electron Corporation). Absorbance values were corrected for background from the corresponding medium. MICs were determined as the concentration of FL that inhibits fungal growth by 50% relative to the FL-free growth control. The MIC of each strain was tested at least two independent times in duplicate. Most strains were tested in rich medium (half-strength YPD) and SD medium. C. albicans clinical isolates were also tested in the synthetic defined medium that is the standard for clinical testing, RPMI (9).
(Dilution methods test growth across graded concentrations, often in twofold steps.)

For assay [5], the system named is C. albicans. The experiment in a line: Fluconazole MIC test (broth microdilution). The assay is classed as cell-based, Candida albicans. The note with it: CAI4 and CaERG3/erg3. How it is done: as §2
After 48 hours, plates were sealed with a clear film (Axygen Scientific), re-suspended by agitation, and absorbance was determined at 595 nm with the Multiskan Ascent photometer (Thermo Labsystems, Thermo Electron Corporation). Absorbance values were corrected for background from the corresponding medium. […] The MIC of each strain was tested at least two independent times in duplicate. Most strains were tested in rich medium (half-strength YPD) and SD medium. C. albicans clinical isolates were also tested in the synthetic defined medium that is the standard for clinical testing, RPMI (9).

Assay [6] relates to C. albicans. The note with it: synthetic defined media; previous studies; cited from earlier work.
For assay [7], the system named is A. terreus soil isolate ATCC 10020. Nature of the assay: Etest strip drug resistance. In kind it is cell-based, Aspergillus terreus. The note with it: rich medium, 35° C., 36 hours. How it is done: FIG. 6. Hsp90 potentiates resistance to different drugs in C. albicans and A. terreus. […] Plates contained the Hsp90 inhibitor RAD (5 μM) or the calcineurin inhibitor CsA (20 μM). The MIC value is where the inhibition ellipse intersects the strip.
Resistance of C. albicans clinical isolate T118 and A. terreus soil isolate ATCC 10020 to FL, voriconazole (VO), and caspofungin (CS) was determined with Etest strips (AB Biodisk) on rich medium (half-strength YPD). For C. albicans, standardized inoculum was prepared as described above and ˜10^5 cells were plated on medium with the Hsp90 inhibitor RAD (5 μM), the calcineurin inhibitor CsA (20 μM), or the solvent control (0.14% DMSO), prior to application of a test strip. Plates were photographed after 36 hours at 30° C. in the dark. For A. terreus, inoculum was prepared according to a standard protocol (15) and ˜10^5 conidia were plated prior to application of a test strip. Plates were photographed after 36 hours at 35° C. in the dark.

[8] abbreviates: GdA 5 μM or RAD 5 μM, SD medium, 30° C.

In the case of `C[C@@H]1C[C@H]2O[C@@H]2/C=C\C=C\C(=O)Cc2c(Cl)c(O)cc(O)c2C(=O)O1` [RAD, radicicol], the “effect on growth in the absence of fluconazole” value with C. albicans [1] is given as “does not impair growth; also recorded: had no effect on growth”. Also, the “colonies recovered on selection plates with fluconazole plus RAD” value in the assay with C. albicans [2] is “no colonies were recovered”. The “effect on fluconazole resistance of eleven deletion mutants” value with S. cerevisiae [3] was “reduced the fluconazole resistance in all of them”. In addition, the “effect of inhibitor alone on growth” value in the assay with S. cerevisiae [4] (GdA 5 μM or RAD 5 μM, 0 μg/ml fluconazole, SD medium, 30° C.) was “did not impair growth on their own”. Moreover, in the assay with S. cerevisiae [4] (setting [8]), the “effect on fluconazole resistance of G1-3 strains (gradual selection)” value is “neither GdA nor RAD altered resistance”, the “effect on fluconazole resistance of R1-3 strains (rapid selection)” value is reported as “abolished fluconazole resistance” and the “effect on fluconazole sensitivity of progenitor strains” value is given as “had no effect”.

Turning to `OC(Cn1cncn1)(Cn1cncn1)c1ccc(F)cc1F` [fluconazole], the “fluconazole concentration at which growth is completely arrested” value worked out at 16 µg/mL in the assay with C. albicans [5] and 16 µg/mL in the assay on S. cerevisiae [4] (all strains (Lo90, Re90, Hi90), SD medium, 23° C.). In addition, the “fluconazole sensitivity of clinical isolate T118” value with C. albicans [6] is listed as “sensitive”.

With `C[C@@H](c1ncncc1F)[C@](O)(Cn1cncn1)c1ccc(F)cc1F` [voriconazole], the “sensitivity of A. terreus to voriconazole relative to fluconazole” value in assay [7] is reported as “much more sensitive to this azole than to fluconazole”. In addition, in the assay on S. cerevisiae [4] (all FLR strains obtained by rapid fluconazole selection), the “voriconazole resistance of FLR strains” value is reported as “resistant”.
